From paper PMC8400968, “Design, Synthesis, Biological Evaluation, and Computational Studies of Novel Tri-Aryl Imidazole-Benzene Sulfonamide Hybrids as Promising Selective Carbonic Anhydrase IX and XII Inhibitors” (Molecules, 2021) come the findings set out here.

Where two headings read alike, the source gives them in different places.

By IC50 is commonly meant the concentration needed to halve the response being measured. The term GI50 denotes the concentration giving 50% growth inhibition. A word on the Ki: it is a dissociation constant, usually derived from enzyme kinetics or from competition with a known ligand. What is called melting point is the temperature of the solid-liquid transition.

The test system of data set [1] is breast cancer cell line (MCF-7). As to the kind of experiment: Antiproliferative activity, MTT assay, MCF-7. It is filed as cell-based. As to conditions: Homo sapiens, MCF7; MCF-7, MTT; read-out: Antiproliferative Activity IC50 ± SEM MCF-7. As to the method:
(§1) The antiproliferative activity of 5b, 5d, 5e, 5g, 5j and 5n against four human cancer cell lines including pancreatic cancer cell line (Panc-1), breast cancer cell line (MCF-7), colon cancer cell line (HT-29) and epithelial cancer cell line (A-549) using MTT assay and doxorubicin was applied as the reference compound [22, 23]. Graph Pad Prism software (Graph Pad Software, San Diego, CA, USA) was used to calculate the median inhibition concentration (IC50) and results are recorded in Table 2.
(§2) The antiproliferative activity of 5b, 5d, 5e, 5g, 5j and 5n against four human cancer cell lines including pancreatic cancer cell line (Panc-1), breast cancer cell line (MCF-7), colon cancer cell line (HT-29) and epithelial cancer cell line (A-549) using MTT assay and doxorubicin was applied as the reference compound [22, 23]. See Appendix A.
(§3) To explore the antiproliferative potential of compounds MTT assay was performed according to previously reported procedure using different cell lines To explore the antiproliferative potential of compounds propidium iodide fluorescence assay was performed using different cell lines. To calculate the total nuclear DNA, a fluorescent dye (propidium iodide, PI) is used which can attach to the DNA, thus offering a quick and precise technique. PI cannot pass through the cell membrane and its signal intensity can be considered as directly proportional to quantity of cellular DNA. Cells whose cell membranes are damaged or have changed permeability are counted as dead ones. The assay was performed by seeding the cells of different cell lines at a density of 3000–7500 cells/well (in 200 µL medium) in culture plates followed by incubation for 24 h at 37 °C in humidified 5% CO2/95% air atmospheric conditions. The medium was removed; the compounds were added to the plates at 10 µM concentrations (in 0.1% DMSO) in triplicates, followed by incubation for 48 h. DMSO (0.1%) was used as control. After incubation, medium was removed followed by the addition of PI (25 µL, 50µg/mL in water/medium) to each well of the plates. At −80 °C, the plates were allowed to freeze for 24 h, followed by thawing at 25 °C. A fluorometer (Polar-Star BMG Tech, Offenburg, Germany) was used to record the readings at excitation and emission wavelengths of 530 and 620 nm for each well. The percentage cytotoxicity of compounds was calculated using the following formula: %Cytotoxicity=(Ac−Atc)/Ac×100 where Atc = Absorbance of treated cells and Ac = Absorbance of control. Erlotinib was used as positive control in the assay.

Data set [2] concerns colon cancer cell line (HT-29). As to the kind of experiment: Antiproliferative activity, MTT assay, HT-29. The format is cell-based. As to conditions: Homo sapiens; HT-29, MTT; read-out: Antiproliferative Activity IC50 ± SEM HT-29. As to the method: as §1, §2, §3
(Tetrazolium assays rely on reduction of a dye to a coloured formazan, in cell work by metabolically active cells.)

The subject of data set [3] is pancreatic cancer cell line (Panc-1). In words: Antiproliferative activity, MTT assay, Panc-1. As to conditions: Homo sapiens; Panc-1, MTT; read-out: Antiproliferative Activity IC50 ± SEM Panc-1. It is filed as cell-based. As to the method: as §1, §2, §3
For data set [4], the system named is four human cancer cell lines (Panc-1, MCF-7, HT-29, A-549). In words: Antiproliferative activity, MTT assay, average of the four cell lines. The format is cell-based. As to the method:
as §1, §2, §3

For data set [5], the system named is epithelial cancer cell line (A-549). As to the kind of experiment: Antiproliferative activity, MTT assay, A-549. The format is cell-based. To be noted: Homo sapiens, A549; A-549, MTT; read-out: Antiproliferative Activity IC50 ± SEM A-549. As to the method:
as §1, §2, §3

For the next data set, the target named is T1, hCA XII (Homo sapiens, UniProt O43570).
T1 construct: made in house
In words: stopped-flow CO2 hydrase assay, hCA XII. The format is biochemical. As to the method: Newly synthesized hybrids 5a–n were tested for their inhibitory activity against four physiologically and pharmacologically CA isoforms, namely cytosolic hCA I and II, and tumor-associated isoforms hCA IX and XII, using a CO2 hydrase stop-flow assay. Acetazolamide (AAZ), clinically used sulphonamide, was used as the standard drug. […]. The ortho substitution in the aryl moiety appears to correlate with higher inhibitory effects against both hCA IX and XII. […] […]. The ability of imidazoles 5a–n toward inhibition of hCA I, II (cytosolic) as well as hCA IX and XII (transmembrane, tumor-associated isoforms) using stopped-flow CO2 hydrase assay was evaluated. See Appendix A.
The carbonic anhydrase catalyzed CO2 hydration actions for all new compounds herein reported have were assayed utilizing an instrument of Applied Photophysics stopped-flow. The enzymes are recombinant proteins prepared in our lab. […]. The uncatalyzed rates were determined in the same manner and subtracted from the total observed rates. Stock solutions of inhibitor (0.1 mM) were prepared in distilled-deionized water and dilutions up to 0.01 nM were done thereafter with the assay buffer. Inhibitor and enzyme solutions were preincubated together for 15 min at room temperature prior to assay, in order to allow for the formation of the E-I complex. The inhibition constants were obtained by non-linear least-squares methods using PRISM 3 and the Cheng-Prusoff equation, and represent the mean from at least three different determinations.

The target of a further data set is T2, hCA II (Homo sapiens, UniProt P00918).
T2 construct: made in house
In words: stopped-flow CO2 hydrase assay, hCA II. It is filed as biochemical. As to the method:
(§4) Newly synthesized hybrids 5a–n were tested for their inhibitory activity against four physiologically and pharmacologically CA isoforms, namely cytosolic hCA I and II, and tumor-associated isoforms hCA IX and XII, using a CO2 hydrase stop-flow assay. Acetazolamide (AAZ), clinically used sulphonamide, was used as the standard drug. […] The ability of imidazoles 5a–n toward inhibition of hCA I, II (cytosolic) as well as hCA IX and XII (transmembrane, tumor-associated isoforms) using stopped-flow CO2 hydrase assay was evaluated. See Appendix A.
(§5) The enzymes are recombinant proteins prepared in our lab. […] The uncatalyzed rates were determined in the same manner and subtracted from the total observed rates. Stock solutions of inhibitor (0.1 mM) were prepared in distilled-deionized water and dilutions up to 0.01 nM were done thereafter with the assay buffer. Inhibitor and enzyme solutions were preincubated together for 15 min at room temperature prior to assay, in order to allow for the formation of the E-I complex. The inhibition constants were obtained by non-linear least-squares methods using PRISM 3 and the Cheng-Prusoff equation, and represent the mean from at least three different determinations.

Another data set has as its target T3, hCA IX (Homo sapiens, UniProt Q16790).
T3 construct: made in house
In words: stopped-flow CO2 hydrase assay, hCA IX. It is filed as biochemical. As to conditions: for IC50: quoted in docking discussion, read-out: IC50 CA-IX (in vitro inhibitory activity quoted in docking study); for Selectivity Ratio hCA XII/ hCA IX: selectivity for hCA IX over hCA XII; for Ki: stopped-flow CO2 hydrase assay; for fold lower inhibitory activity on hCA IX than the ortho-derivative: 5f vs 5e, 5h vs 5g. As to the method: as §4, §5

A further data set concerns the target T4, hCA I (Homo sapiens, UniProt P00915).
T4 construct: made in house
As to the kind of experiment: stopped-flow CO2 hydrase assay, hCA I. It is filed as biochemical. As to the method: as §4, §5

T4 sequence (P00915 whole entry): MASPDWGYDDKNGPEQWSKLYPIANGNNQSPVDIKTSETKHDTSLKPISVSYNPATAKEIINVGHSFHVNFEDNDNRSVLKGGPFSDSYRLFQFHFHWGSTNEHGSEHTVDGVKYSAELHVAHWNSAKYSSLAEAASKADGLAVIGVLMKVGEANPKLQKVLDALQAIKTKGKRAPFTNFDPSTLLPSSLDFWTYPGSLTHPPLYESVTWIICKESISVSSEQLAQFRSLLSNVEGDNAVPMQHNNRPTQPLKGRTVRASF
T1 sequence (O43570 25-354): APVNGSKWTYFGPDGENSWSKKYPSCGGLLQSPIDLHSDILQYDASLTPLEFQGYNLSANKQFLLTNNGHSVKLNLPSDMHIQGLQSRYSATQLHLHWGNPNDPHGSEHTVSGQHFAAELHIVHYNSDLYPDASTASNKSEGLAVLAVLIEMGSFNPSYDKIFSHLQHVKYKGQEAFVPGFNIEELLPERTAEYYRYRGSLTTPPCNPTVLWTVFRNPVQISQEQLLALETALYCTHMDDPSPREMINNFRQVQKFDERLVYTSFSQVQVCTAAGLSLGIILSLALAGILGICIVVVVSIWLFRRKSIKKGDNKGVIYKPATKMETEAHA

In the case of `COc1cccc2c1C(=O)c1c(O)c3c(c(O)c1C2=O)C[C@@](O)(C(=O)CO)C[C@@H]3O[C@H]1C[C@H](N)[C@H](O)[C@H](C)O1` [Doxorubicin, reference compound], the IC50 turned out to be 0.9 ± 0.6 µM in [1]; 1 ± 0.8 µM in [2]; 1.4 ± 0.6 µM in data set [3]; 1.1 µM in data set [4] (average of A-549, MCF-7, Panc-1, HT-29); 1.2 ± 0.8 µM in data set [5]. Besides, the GI50 in [4] (four cancer cell lines, read-out: GI50) turned out to be 1.1 µM.
Compound `CN(C)c1ccc(-c2nc(-c3ccccc3)c(-c3ccccc3)n2-c2ccc(S(N)(=O)=O)cc2)cc1` [Compound 5k, 4-(2-(4-(Dimethylamino)phenyl)-4,5-diphenyl-1H-imidazol-1-yl)benzene sulfonamide] returned a melting point of 224 to 226 °C. The compound further showed a Ki on hCA XII of 6.8 µM. For the same compound, the inhibition constant (Ki) at hCA II was greater than 100 µM. For the same compound, on hCA IX, the 50% inhibitory concentration (IC50) came to 9.3 µM, the “Selectivity Ratio hCA XII/ hCA IX” value is on record as 0.70 and the Ki came to 9.3 µM. This compound also returned a Ki at hCA I greater than 100 µM.
`COc1ccc(-c2nc(-c3ccccc3)c(-c3ccccc3)n2-c2ccc(S(N)(=O)=O)cc2)cc1OC` [Compound 5i, 4-(2-(3,4-Dimethoxyphenyl)-4,5-diphenyl-1H-imidazol-1-yl)benzene sulfonamide] returned a melting point of 260 to 262 °C. Besides, the Ki at hCA XII came to 6.6 µM. The compound further yielded a Ki on hCA II greater than 100 µM. For the same compound, on hCA IX, the IC50 stood at 9.2 µM, the “Selectivity Ratio hCA XII/ hCA IX” value turned out to be 0.70 and the Ki was 9.2 µM. Moreover, the Ki at hCA I was greater than 100 µM.
`NS(=O)(=O)c1ccc(-n2c(-c3ccc(C(=O)O)cc3)nc(-c3ccccc3)c2-c2ccccc2)cc1` [Compound 5l, 4-(4,5-Diphenyl-1-(4-sulfamoylphenyl)-1H-imidazol-2-yl)benzoic acid]: the melting point lay in the range of 200 to 202 °C. This compound also came in with a Ki at hCA XII of 6.8 µM. This compound gave a Ki at hCA II greater than 100 µM. For the same compound, at hCA IX, the “Selectivity Ratio hCA XII/ hCA IX” value worked out at 0.80 and the Ki worked out at 8.5 µM. Moreover, the Ki on hCA I is greater than 100 µM.
Regarding `CCOC(=O)c1ccc(-c2nc(-c3ccccc3)c(-c3ccccc3)n2-c2ccc(S(N)(=O)=O)cc2)cc1` [Compound 5m, Ethyl 4-(4,5-diphenyl-1-(4-sulfamoylphenyl)-1H-imidazol-2-yl)benzoate], the melting point lay in the range of 216 to 218 °C. Moreover, the Ki at hCA XII amounted to 6.2 µM. Moreover, on hCA II, the Ki was greater than 100 µM. Further, on hCA IX, the “Selectivity Ratio hCA XII/ hCA IX” value is recorded as 0.70 and the Ki is 8.8 µM. For the same compound, on hCA I (stopped-flow CO2 hydrase assay, read-out: Ki hCA I), the Ki is greater than 100 µM.
As for `NS(=O)(=O)c1ccc(-n2c(-c3ccc(O)cc3)nc(-c3ccccc3)c2-c2ccccc2)cc1` [Compound 5f, 4-(2-(4-Hydroxyphenyl)-4,5-diphenyl-1H-imidazol-1-yl)benzene sulfonamide], the inhibition constant Ki on hCA XII is 7.1 µM; on hCA II, greater than 100 µM; at hCA IX it was 8.4 µM; on hCA I it was greater than 100 µM. Besides, at hCA IX, the “fold lower inhibitory activity on hCA IX than the ortho-derivative” value came out at 10 fold. Further, the “Selectivity Ratio hCA XII/ hCA IX” value on hCA IX came to 0.90.
`NS(=O)(=O)c1ccc(-n2c(-c3ccccc3)nc(-c3ccccc3)c2-c2ccccc2)cc1` [Compound 5a, 4-(2,4,5-Triphenyl-1H-imidazol-1-yl)benzene sulfonamide] registered a melting point of 210 to 212 °C. Also, affinity at hCA XII was put at a Ki of 5.5 µM. On hCA II, this compound yielded a Ki greater than 100 µM. Moreover, on hCA IX, the “Selectivity Ratio hCA XII/ hCA IX” value was found to be 1.90 and the Ki came to 2.9 µM. This compound also returned an inhibitory constant (Ki) at hCA I greater than 100 µM.
With `NS(=O)(=O)c1ccc(-n2c(-c3ccc(Cl)cc3)nc(-c3ccccc3)c2-c2ccccc2)cc1` [Compound 5c, 4-(2-(4-Chlorophenyl)-4,5-diphenyl-1H-imidazol-1-yl)benzene sulfonamide], the melting point lay within 230 to 232 °C. Further, the affinity on hCA XII, expressed as Ki, was 3.7 µM. On hCA II, this compound yielded an inhibition constant (Ki) greater than 100 µM. At hCA IX, the “Selectivity Ratio hCA XII/ hCA IX” value is listed as 0.45 and the Ki was 8.2 µM. In addition, at hCA I, the inhibitory constant (Ki) was greater than 100 µM.
Compound `COc1ccc(-c2nc(-c3ccccc3)c(-c3ccccc3)n2-c2ccc(S(N)(=O)=O)cc2)cc1` [Compound 5h, 4-(2-(4-Methoxyphenyl)-4,5-diphenyl-1H-imidazol-1-yl)benzene sulfonamide] gave a melting point of 235 to 237 °C. The Ki on hCA XII was determined as 3.9 µM. Also, the Ki on hCA II was greater than 100 µM. Besides, at hCA IX, the “fold lower inhibitory activity on hCA IX than the ortho-derivative” value came to 22 fold, the “Selectivity Ratio hCA XII/ hCA IX” value is given as 0.50 and the Ki turned out to be 7.4 µM. Besides, the Ki at hCA I is greater than 100 µM.
